# Test results taken from US10851102B2, “Imidazole and triazole containing bicyclic compounds as JAK inhibitors” (THERAVANCE BIOPHARMA R&D IP, LLC, priority 2019, dated 2020).
# Like-named read-outs stand apart in the source and are kept apart here.
# Legend:
# JAK1 = JAK1 (Homo sapiens (Human), UniProt P23458); assay: Biochemical JAK and Tyk2 kinase assays (LanthaScreen): JAK1; conditions: 1 h pre-incubation, ATP at Km; pIC50 converted to pKi by Cheng-Prusoff
# Procedure: (§1) Assay 1: Biochemical JAK and Tyk2 Kinase Assays
# (§2) A panel of four LanthaScreen JAK biochemical assays (JAK1, 2, 3 and Tyk2) were carried in a common kinase reaction buffer (50 mM HEPES, pH 7.5, 0.01% Brij-35, 10 mM MgCl2, and 1 mM EGTA). Recombinant GST-tagged JAK enzymes and a GFP-tagged STAT1 peptide substrate were obtained from Life Technologies.
# (§3) Serially or discretely diluted compounds were pre-incubated with each of the four JAK enzymes and the substrate in white 384-well microplates (Corning) at ambient temperature for 1 h. ATP was subsequently added to initiate the kinase reactions in 10 μL total volume, with 1% DMSO. […] Kinase reactions were allowed to proceed for 1 hour at ambient temperature before a 10 μL preparation of EDTA (10 mM final concentration) and Tb-anti-pSTAT1 (pTyr701) antibody (Life Technologies, 2 nM final concentration) in TR-FRET dilution buffer (Life Technologies) was added. The plates were allowed to incubate at ambient temperature for 1 h before being read on the EnVision reader (Perkin Elmer). Emission ratio signals (520 nm/495 nm) were recorded and utilized to calculate the percent inhibition values based on DMSO and background controls.
# (§4) For dose-response analysis, percent inhibition data were plotted vs. compound concentrations, and IC50 values were determined from a 4-parameter robust fit model with the Prism software (GraphPad Software). Results were expressed as pIC50 (negative logarithm of IC50) and subsequently converted to pKi (negative logarithm of dissociation constant, Ki) using the Cheng-Prusoff equation.
# JAK3 = JAK3 (Homo sapiens (Human), UniProt P52333); assay: Biochemical JAK and Tyk2 kinase assays (LanthaScreen): JAK3; conditions: for Ki: read-out: JAK 3 (pKi) (converted); for JAK3 (pKi)-JAK1 (pKi): difference of pKi values, selectivity JAK3 over JAK1
# Procedure: as §1, §2, §3, §4
# [1] = system: IL-2 stimulated pSTAT5 in Tall-1 T cells (JAK3); assay: Cellular JAK3 potency assay: inhibition of IL-2 stimulated pSTAT5 in Tall-1 T cells; type: cell-based; conditions: IL-2 300 ng/ml, pSTAT5 AlphaLisa, Tall-1 human T cell line; read-out: Tall-1 (pIC50) (converted)
# Procedure: Assay 2: Cellular JAK3 Potency Assay: Inhibition of IL-2 Stimulated pSTAT5 in Tall-1 T Cells
# The potency of test compounds for inhibition of interleukin-2 (IL-2) stimulated STATS phosphorylation was measured in the Tall-1 human T cell line (DSMZ) using AlphaLisa. Because IL-2 signals through JAK3, this assay provides a measure of JAK3 cellular potency.
# Phosphorylated STATS was measured via the AlphaLISA SureFire Ultra pSTAT5 (Tyr694/699) kit (PerkinElmer).
# Human T cells from the Tall-1 cell line were cultured in a 37° C., 5% CO2 humidified incubator in RPMI (Life Technologies) supplemented with 15% Heat Inactivated Fetal Bovine Serum (FBS, Life Technologies), 2 mM Glutamax (Life Technologies), 25 mM HEPES (Life Technologies) and 1× Pen/Strep (Life Technologies). Compounds were serially diluted in DMSO and dispensed acoustically to empty wells. Assay media (phenol red-free DMEM (Life Technologies) supplemented with 10% FBS (ATCC)) was dispensed (4 μL/well) and plates shaken at 900 rpm for 10 mins. Cells were seeded at 45,000 cells/well in assay media (4 μL/well), and incubated at 37° C., 5% CO2 for 1 hour, followed by the addition of IL-2 (R&D Systems; final concentration 300 ng/ml) in pre-warmed assay media ([…]) for 30 minutes. After cytokine stimulation, cells were lysed with 6 ul of 3× AlphaLisa Lysis Buffer (PerkinElmer) containing 1× PhosStop and Complete tablets (Roche). The lysate was shaken at 900 rpm for 10 minutes at room temperature (RT). Phosphorylated STATS was measured via the pSTAT5 AlphaLisa kit (PerkinElmer). Freshly prepared acceptor bead mixture was dispensed onto lysate (5 μL) under green filtered <100 lux light. Plates were shaken at 900 rpm for 2 mins, briefly spun down, and incubated for 2 hrs at RT in the dark. Donor beads were dispensed (5 μL) under green filtered <100 lux light. Plates were shaken at 900 rpm for 2 minutes, briefly spun down, and incubated overnight at RT in the dark. Luminescence was measured with excitation at 689 nm and emission at 570 nm using an EnVision plate reader (PerkinElmer) under green filtered <100 lux light.
# To determine the inhibitory potency of test compounds in response to IL-2, the average emission intensity of beads bound to pSTAT5 was measured in a human T cell line. IC50 values were determined from analysis of the inhibition curves of signal intensity versus compound concentration. Data are expressed as pIC50 (negative decadic logarithm IC50) values (mean±standard deviation).
# [2] = 1 h pre-incubation, ATP at Km, pIC50 converted to pKi by Cheng-Prusoff
# Sequence of JAK1 (P23458 whole entry): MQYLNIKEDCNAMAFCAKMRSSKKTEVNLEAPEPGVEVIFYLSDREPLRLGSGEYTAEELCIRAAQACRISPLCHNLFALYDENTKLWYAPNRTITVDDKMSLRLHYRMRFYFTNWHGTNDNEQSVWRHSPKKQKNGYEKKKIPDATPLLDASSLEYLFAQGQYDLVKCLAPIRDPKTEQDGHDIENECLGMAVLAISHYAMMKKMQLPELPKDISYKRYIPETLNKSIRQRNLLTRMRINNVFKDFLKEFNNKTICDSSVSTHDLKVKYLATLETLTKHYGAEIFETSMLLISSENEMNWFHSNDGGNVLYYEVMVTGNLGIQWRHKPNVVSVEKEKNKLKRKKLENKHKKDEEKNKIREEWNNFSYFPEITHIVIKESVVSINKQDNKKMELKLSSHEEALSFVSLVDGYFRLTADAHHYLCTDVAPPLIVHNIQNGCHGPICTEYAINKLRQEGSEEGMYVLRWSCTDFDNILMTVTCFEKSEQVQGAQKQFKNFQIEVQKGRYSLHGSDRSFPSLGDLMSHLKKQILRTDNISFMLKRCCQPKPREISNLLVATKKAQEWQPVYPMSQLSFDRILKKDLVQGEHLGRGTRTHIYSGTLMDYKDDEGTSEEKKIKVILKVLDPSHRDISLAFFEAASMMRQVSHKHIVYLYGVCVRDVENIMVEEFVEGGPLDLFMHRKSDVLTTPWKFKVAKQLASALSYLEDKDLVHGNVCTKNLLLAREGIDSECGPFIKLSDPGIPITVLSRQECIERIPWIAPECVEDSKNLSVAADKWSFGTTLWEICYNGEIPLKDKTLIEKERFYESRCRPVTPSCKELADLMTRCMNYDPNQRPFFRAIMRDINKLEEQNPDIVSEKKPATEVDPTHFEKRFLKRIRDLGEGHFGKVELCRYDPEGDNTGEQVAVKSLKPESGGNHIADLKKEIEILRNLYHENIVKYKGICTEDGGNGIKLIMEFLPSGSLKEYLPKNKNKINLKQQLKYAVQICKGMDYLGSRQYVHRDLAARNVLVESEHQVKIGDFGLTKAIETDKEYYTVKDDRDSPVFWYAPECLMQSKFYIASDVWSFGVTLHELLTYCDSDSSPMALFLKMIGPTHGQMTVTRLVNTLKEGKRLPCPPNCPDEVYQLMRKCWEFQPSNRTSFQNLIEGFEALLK
# Sequence of JAK3 (P52333 whole entry): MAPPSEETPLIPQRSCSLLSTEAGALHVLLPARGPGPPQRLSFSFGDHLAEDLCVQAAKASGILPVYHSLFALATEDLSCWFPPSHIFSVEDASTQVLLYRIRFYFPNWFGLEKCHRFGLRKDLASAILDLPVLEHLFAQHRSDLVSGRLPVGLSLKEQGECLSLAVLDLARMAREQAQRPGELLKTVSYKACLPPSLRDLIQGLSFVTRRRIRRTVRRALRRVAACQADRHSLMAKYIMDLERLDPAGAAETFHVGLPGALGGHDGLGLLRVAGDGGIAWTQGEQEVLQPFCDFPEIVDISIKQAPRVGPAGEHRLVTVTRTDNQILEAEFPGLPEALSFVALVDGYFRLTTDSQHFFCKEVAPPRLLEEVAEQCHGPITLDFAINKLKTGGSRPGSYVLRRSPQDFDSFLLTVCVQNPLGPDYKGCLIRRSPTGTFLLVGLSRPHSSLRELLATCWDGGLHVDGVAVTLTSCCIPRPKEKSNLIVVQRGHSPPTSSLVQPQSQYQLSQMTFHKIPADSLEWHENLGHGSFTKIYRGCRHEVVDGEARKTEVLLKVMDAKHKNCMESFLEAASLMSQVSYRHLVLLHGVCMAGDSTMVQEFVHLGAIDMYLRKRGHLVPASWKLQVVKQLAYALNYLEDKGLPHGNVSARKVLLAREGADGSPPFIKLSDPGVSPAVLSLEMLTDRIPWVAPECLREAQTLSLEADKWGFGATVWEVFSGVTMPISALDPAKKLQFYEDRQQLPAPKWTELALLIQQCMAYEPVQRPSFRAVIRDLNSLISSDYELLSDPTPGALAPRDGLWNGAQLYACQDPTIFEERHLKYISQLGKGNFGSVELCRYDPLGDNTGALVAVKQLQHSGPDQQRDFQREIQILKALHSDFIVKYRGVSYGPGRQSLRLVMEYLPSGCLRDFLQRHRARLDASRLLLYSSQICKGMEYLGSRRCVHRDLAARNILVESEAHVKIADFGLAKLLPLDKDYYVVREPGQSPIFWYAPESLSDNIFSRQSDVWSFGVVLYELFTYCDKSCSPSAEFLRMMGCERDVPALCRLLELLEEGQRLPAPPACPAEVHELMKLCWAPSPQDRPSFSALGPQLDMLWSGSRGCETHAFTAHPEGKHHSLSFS
SMILES,JAK 1 (pKi) (JAK1),Ki (JAK3; [2]),JAK3 (pKi)-JAK1 (pKi) (JAK3),IC50 [1],Ki (JAK1),JAK 3 (pKi) (JAK3; [2]),Ki (JAK3)
C=CC(=O)N1CC(COc2cc(-c3cc(F)c(O)c(F)c3)cn3cncc23)C1 [Example 32],E (E represents a pKi value of 7 or below (Ki of 100 nM or above)),0.1 to 1 nM,A (A represents a value of 3 or above),200 to 1000 nM,–,–,–
C=CC(=O)N1[C@@H]2CC[C@H]1C[C@H](Nc1cc(-c3ccc(O)cc3)cn3cncc13)C2 [Example 50],E (E represents a pKi value of 7 or below (Ki of 100 nM or above)),1 to 10 nM,B (B represents a value of 2.3 to 3),–,–,–,–
C=CC(=O)N1CC(COc2cc(-c3cc(C)c(O)c(C)c3)cn3cncc23)C1 [Example 35],E (E represents a pKi value of 7 or below (Ki of 100 nM or above)),0.1 to 1 nM,A (A represents a value of 3 or above),200 to 1000 nM,–,–,–
CN(C)C/C=C/C(=O)N1CC(COc2cc(-c3ccc(O)cc3)cn3cncc23)C1 [Example 19],E (E represents a pKi value of 7 or below (Ki of 100 nM or above)),0.1 to 1 nM,A (A represents a value of 3 or above),200 to 1000 nM,–,–,–
CCc1cc(O)ccc1-c1cc(OCC2CN(C(=O)/C=C/CN(C)C)C2)c2cncn2c1 [Example 25],E (E represents a pKi value of 7 or below (Ki of 100 nM or above)),0.1 to 1 nM,A (A represents a value of 3 or above),200 to 1000 nM,–,–,–
C=CC(=O)N1[C@@H]2CC[C@H]1C[C@H](Oc1cc(-c3cc(F)c(O)cc3CC)cn3cncc13)C2 [Example 48],–,–,A (A represents a value of 3 or above),≤ 31.6 nM,10 to 100 nM,A (A represents a pKi value≥10 (Ki≤0.1 nM)),–
C=CC(=O)N1CC(COc2cc(-c3cc(C)c(O)cc3C)cn3cncc23)C1 [Example 43],E (E represents a pKi value of 7 or below (Ki of 100 nM or above)),0.1 to 1 nM,A (A represents a value of 3 or above),31.6 to 200 nM,–,–,–
C=CC(=O)N1CCC(Oc2cc(-c3cc(F)c(O)cc3CC)cn3cncc23)C(F)(F)C1 (stereo not drawn) [Example 49],–,–,C (C represents a value of 1.8 to 2.3),≤ 31.6 nM,10 to 100 nM,–,0.1 nM
CN(C)C/C=C/C(=O)N1CC(COc2cc(-c3ccc(O)c(F)c3)cn3cncc23)C1 [Example 22],E (E represents a pKi value of 7 or below (Ki of 100 nM or above)),0.1 to 1 nM,A (A represents a value of 3 or above),200 to 1000 nM,–,–,–
C=CC(=O)N1CC[C@H](Oc2cc(-c3ccc(O)cc3)cn3cncc23)C[C@@H]1C [Example 38],E (E represents a pKi value of 7 or below (Ki of 100 nM or above)),0.1 to 1 nM,A (A represents a value of 3 or above),31.6 to 200 nM,–,–,–
C=CC(=O)N1[C@@H]2CC[C@H]1C[C@@H](Oc1cc(-c3ccc(O)cc3)cn3cncc13)C2 [Example 36],E (E represents a pKi value of 7 or below (Ki of 100 nM or above)),–,A (A represents a value of 3 or above),31.6 to 200 nM,–,A (A represents a pKi value≥10 (Ki≤0.1 nM)),–
"C=CC(=O)N1CC(COc2cc(-c3ccc(O)cc3)cn3cnnc23)C1 [Example 5, 1-(3-(((6-(4-hydroxyphenyl)-[1,2,4]triazolo[4,3-a]pyridin-8-yl)oxy)methyl)azetidin-1-yl)prop-2-en-1-one]",E (E represents a pKi value of 7 or below (Ki of 100 nM or above)),–,A (A represents a value of 3 or above),200 to 1000 nM,–,A (A represents a pKi value≥10 (Ki≤0.1 nM)),–
C=CC(=O)N1CC(CSc2cc(-c3ccc(O)cc3)cn3cncc23)C1 [Example 29],E (E represents a pKi value of 7 or below (Ki of 100 nM or above)),0.1 to 1 nM,A (A represents a value of 3 or above),200 to 1000 nM,–,–,–
C=CC(=O)N1CC(CNc2cc(-c3ccc(O)cc3)cn3cncc23)C1 [Example 52],E (E represents a pKi value of 7 or below (Ki of 100 nM or above)),1 to 10 nM,B (B represents a value of 2.3 to 3),–,–,–,–
C=CC(=O)N1CCC(Oc2cc(-c3cc(F)c(O)cc3CC)cn3cncc23)CC1 [Example 47],–,–,B (B represents a value of 2.3 to 3),≤ 31.6 nM,10 to 100 nM,A (A represents a pKi value≥10 (Ki≤0.1 nM)),–
CCc1cc(O)c(F)cc1-c1cc(O[C@H]2CCCN(C(=O)/C=C/CN(C)C)C2)c2cncn2c1 [Example 18],E (E represents a pKi value of 7 or below (Ki of 100 nM or above)),0.1 to 1 nM,B (B represents a value of 2.3 to 3),–,–,–,–
C=CC(=O)N1CC2(CCC2Oc2cc(-c3cc(F)c(O)cc3CC)cn3cncc23)C1 (stereo not drawn) [Example 46],E (E represents a pKi value of 7 or below (Ki of 100 nM or above)),0.1 to 1 nM,B (B represents a value of 2.3 to 3),31.6 to 200 nM,–,–,–
C=CC(=O)N1CC(COc2cc(-c3ccc(O)cc3OC)cn3cncc23)C1 [Example 45],E (E represents a pKi value of 7 or below (Ki of 100 nM or above)),0.1 to 1 nM,A (A represents a value of 3 or above),200 to 1000 nM,–,–,–
C=CC(=O)N1CCC[C@H](Nc2cc(-c3ccc(O)cc3)cn3cncc23)C1 [Example 51],E (E represents a pKi value of 7 or below (Ki of 100 nM or above)),1 to 10 nM,B (B represents a value of 2.3 to 3),–,–,–,–
C=CC(=O)N1[C@H](C)C[C@H](Oc2cc(-c3ccc(O)cc3)cn3cncc23)C[C@@H]1C [Example 40],E (E represents a pKi value of 7 or below (Ki of 100 nM or above)),1 to 10 nM,B (B represents a value of 2.3 to 3),200 to 1000 nM,–,–,–
C=CC(=O)N1CC(COc2cc(-c3ccc(O)cc3C(F)(F)F)cn3cncc23)C1 [Example 42],E (E represents a pKi value of 7 or below (Ki of 100 nM or above)),0.1 to 1 nM,A (A represents a value of 3 or above),200 to 1000 nM,–,–,–
C=CC(=O)N1CCC(N(C)c2cc(-c3ccc(O)cc3)cn3cncc23)CC1 [Example 17],E (E represents a pKi value of 7 or below (Ki of 100 nM or above)),–,B (B represents a value of 2.3 to 3),–,–,C (C represents a pKi value between 8 and 9 (Ki between 10 nM and 1 nM)),–
"C=CC(=O)N1[C@@H]2CC[C@H]1C[C@H](Oc1cc(-c3ccc(O)cc3)cn3cncc13)C2 [Example 10, 1-((1R,3S,5S)-3-((6-(4-hydroxyphenyl)imidazo[1,5-a]pyridin-8-yl)oxy)-8-azabicyclo[3.2.1]octan-8-yl)prop-2-en-1-one]",–,–,–,31.6 to 200 nM,–,–,–
